Reference: patent publication US20230257396A1, “MACROCYCLES AND THEIR USE” (BLOSSOMHILL THERAPEUTICS, INC., priority 2020, published 2023)

Columns and labels:
Test in all cases: KINOMEscan kinase binding assay (Eurofins/DiscoveRx), % Ctrl
kinases [1] = target: T1, kinases (Homo sapiens, UniProt P36888, D835V); settings: 1 μM; FLT3(D835V)
T1 construct: purchased Eurofins/DiscoveRx; host or cells: E. coli BL21-derived host (T7 phage display) for most kinases; HEK-293 for the rest
T1 sequence (P36888 27-993 D835V): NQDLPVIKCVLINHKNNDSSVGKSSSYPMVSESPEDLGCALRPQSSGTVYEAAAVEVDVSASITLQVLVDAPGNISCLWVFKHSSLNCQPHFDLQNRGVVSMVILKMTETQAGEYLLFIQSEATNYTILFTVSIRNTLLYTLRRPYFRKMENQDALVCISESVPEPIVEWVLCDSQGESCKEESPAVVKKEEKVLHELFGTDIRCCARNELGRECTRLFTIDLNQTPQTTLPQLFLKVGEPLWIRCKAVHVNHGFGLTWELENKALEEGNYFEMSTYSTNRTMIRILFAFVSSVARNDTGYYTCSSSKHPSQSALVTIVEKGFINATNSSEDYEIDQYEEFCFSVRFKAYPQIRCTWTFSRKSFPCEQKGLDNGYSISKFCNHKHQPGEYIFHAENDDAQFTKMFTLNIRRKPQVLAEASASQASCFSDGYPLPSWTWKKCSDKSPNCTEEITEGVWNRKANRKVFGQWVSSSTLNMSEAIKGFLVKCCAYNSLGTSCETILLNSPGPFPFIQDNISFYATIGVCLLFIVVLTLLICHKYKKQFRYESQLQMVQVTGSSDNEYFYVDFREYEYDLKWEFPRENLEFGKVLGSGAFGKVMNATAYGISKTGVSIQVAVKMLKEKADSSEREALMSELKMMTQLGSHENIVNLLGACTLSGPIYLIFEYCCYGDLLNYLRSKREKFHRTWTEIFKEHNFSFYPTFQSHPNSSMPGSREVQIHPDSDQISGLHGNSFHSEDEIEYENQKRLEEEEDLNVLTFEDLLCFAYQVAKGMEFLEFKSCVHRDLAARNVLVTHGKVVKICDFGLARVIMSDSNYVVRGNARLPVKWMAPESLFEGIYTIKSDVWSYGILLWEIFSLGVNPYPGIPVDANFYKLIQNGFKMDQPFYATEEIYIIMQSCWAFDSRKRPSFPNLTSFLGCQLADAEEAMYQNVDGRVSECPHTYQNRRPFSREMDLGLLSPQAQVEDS
Method: (§1) Kinase binding assays were performed at Eurofins/DiscoveRx using the general KINOMEscan Protocol (Fabian, M. A. et al., “A small molecule-kinase interaction map for clinical kinase inhibitors,” Nat. Biotechnol. 2005, 23(3):329-36). For most assays, kinase-tagged T7 phage strains were prepared in an E. coli host derived from the BL21 strain. E. coli were grown to log-phase and infected with T7 phage and incubated with shaking at 32° C. until lysis. The lysates were centrifuged and filtered to remove cell debris. The remaining kinases were produced in HEK-293 cells and subsequently tagged with DNA for qPCR detection. Streptavidin-coated magnetic beads were treated with biotinylated small molecule ligands for 30 minutes at room temperature to generate affinity resins for kinase assays. The liganded beads were blocked with excess biotin and washed with blocking buffer (SeaBlock (Pierce), 1% BSA, 0.05% Tween 20, 1 mM DTT) to remove unbound ligand and to reduce nonspecific binding. Binding reactions were assembled by combining kinases, liganded affinity beads, and test compounds in 1×binding buffer (20% SeaBlock, 0.17×PBS, 0.05% Tween 20, 6 mM DTT). All reactions were performed in polystyrene 96-well plates in a final volume of 0.135 mL. The assay plates were incubated at room temperature with shaking for 1 hour and the affinity beads were washed with washbuffer (1×PBS, 0.05% Tween 20). The beads were then re-suspended in elution buffer (1× PBS, 0.05% Tween 20, 0.5 μM non-biotinylated affinity ligand) and incubated at room temperature with shaking for 30 minutes. The kinase concentration in the eluates was measured by qPCR. Results for compounds tested in this assay at a given concentration are reported as “% Ctrl”, where lower numbers indicate stronger binding in the matrix.
(§2) (test compound signal-positive control signal)/(negative control signal-positive control signal) X100

kinases [2] = target: T2, kinases (Homo sapiens, UniProt P00533, DEL746-750); settings: 1 μM; EGFR(E746-A750del)
T2 construct: purchased Eurofins/DiscoveRx; host or cells: E. coli BL21-derived host (T7 phage display) for most kinases; HEK-293 for the rest
Method: as §1, §2

kinases [3] = target: T3, kinases (Homo sapiens, UniProt P10721, T670I/V559D); settings: 1 μM; KIT(V559D, T670I)
T3 construct: purchased Eurofins/DiscoveRx; host or cells: E. coli BL21-derived host (T7 phage display) for most kinases; HEK-293 for the rest
Method: as §1, §2

kinases [4] = target: T4, kinases (Homo sapiens, UniProt P10721, A829P); settings: 1 μM; KIT(A829P)
T4 construct: purchased Eurofins/DiscoveRx; host or cells: E. coli BL21-derived host (T7 phage display) for most kinases; HEK-293 for the rest
Method: as §1, §2

kinases [5] = target: T5, kinases (Homo sapiens, UniProt P00533); settings: 1 μM; EGFR
T5 construct: purchased Eurofins/DiscoveRx; host or cells: E. coli BL21-derived host (T7 phage display) for most kinases; HEK-293 for the rest
Method: as §1, §2

kinases [6] = target: T6, kinases (Homo sapiens, UniProt P00519, Q252H); settings: 1 μM
T6 construct: purchased Eurofins/DiscoveRx; host or cells: E. coli BL21-derived host (T7 phage display) for most kinases; HEK-293 for the rest
Method: as §1, §2

kinases [7] = settings: 1 μM
Method: as §1, §2

kinases [8] = target: T7, kinases (Homo sapiens, UniProt P00519, M351T); settings: 1 μM; ABL1(M351T)-phosphorylated
T7 construct: purchased Eurofins/DiscoveRx; host or cells: E. coli BL21-derived host (T7 phage display) for most kinases; HEK-293 for the rest
Method: as §1, §2

kinases [9] = target: T8, kinases (Homo sapiens, UniProt P10721, V559D/V654A); settings: 1 μM; KIT(V559D, V654A)
T8 construct: purchased Eurofins/DiscoveRx; host or cells: E. coli BL21-derived host (T7 phage display) for most kinases; HEK-293 for the rest
Method: as §1, §2

kinases [10] = target: T9, kinases (Homo sapiens, UniProt P07949, V804M); settings: 1 μM; RET(V804M)
T9 construct: purchased Eurofins/DiscoveRx; host or cells: E. coli BL21-derived host (T7 phage display) for most kinases; HEK-293 for the rest
Method: as §1, §2

T4 sequence (P10721 26-976 A829P): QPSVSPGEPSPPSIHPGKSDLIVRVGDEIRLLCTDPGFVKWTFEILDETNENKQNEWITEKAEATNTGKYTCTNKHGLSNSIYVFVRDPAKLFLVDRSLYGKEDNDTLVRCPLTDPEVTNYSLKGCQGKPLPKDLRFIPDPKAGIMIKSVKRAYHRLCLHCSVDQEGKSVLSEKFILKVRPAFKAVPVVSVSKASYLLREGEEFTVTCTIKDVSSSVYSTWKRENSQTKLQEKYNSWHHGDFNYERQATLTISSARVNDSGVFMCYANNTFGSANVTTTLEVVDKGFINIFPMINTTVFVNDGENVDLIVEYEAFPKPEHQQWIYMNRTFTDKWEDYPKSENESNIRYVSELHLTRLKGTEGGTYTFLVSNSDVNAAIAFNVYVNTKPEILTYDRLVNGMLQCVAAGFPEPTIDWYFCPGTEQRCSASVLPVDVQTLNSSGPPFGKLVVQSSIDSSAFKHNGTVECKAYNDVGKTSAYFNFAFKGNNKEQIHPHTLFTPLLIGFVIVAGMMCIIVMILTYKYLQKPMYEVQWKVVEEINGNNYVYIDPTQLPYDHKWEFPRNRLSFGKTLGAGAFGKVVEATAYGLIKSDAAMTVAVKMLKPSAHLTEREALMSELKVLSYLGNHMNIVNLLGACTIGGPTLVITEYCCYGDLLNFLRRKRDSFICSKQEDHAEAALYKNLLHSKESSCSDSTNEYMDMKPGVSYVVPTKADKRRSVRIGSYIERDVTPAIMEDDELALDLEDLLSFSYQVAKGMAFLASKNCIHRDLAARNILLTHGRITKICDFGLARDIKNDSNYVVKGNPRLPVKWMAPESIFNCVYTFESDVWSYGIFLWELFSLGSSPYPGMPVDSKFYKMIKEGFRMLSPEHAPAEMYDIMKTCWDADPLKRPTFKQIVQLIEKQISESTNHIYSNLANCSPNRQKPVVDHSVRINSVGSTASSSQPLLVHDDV
T9 sequence (P07949 29-1114 V804M): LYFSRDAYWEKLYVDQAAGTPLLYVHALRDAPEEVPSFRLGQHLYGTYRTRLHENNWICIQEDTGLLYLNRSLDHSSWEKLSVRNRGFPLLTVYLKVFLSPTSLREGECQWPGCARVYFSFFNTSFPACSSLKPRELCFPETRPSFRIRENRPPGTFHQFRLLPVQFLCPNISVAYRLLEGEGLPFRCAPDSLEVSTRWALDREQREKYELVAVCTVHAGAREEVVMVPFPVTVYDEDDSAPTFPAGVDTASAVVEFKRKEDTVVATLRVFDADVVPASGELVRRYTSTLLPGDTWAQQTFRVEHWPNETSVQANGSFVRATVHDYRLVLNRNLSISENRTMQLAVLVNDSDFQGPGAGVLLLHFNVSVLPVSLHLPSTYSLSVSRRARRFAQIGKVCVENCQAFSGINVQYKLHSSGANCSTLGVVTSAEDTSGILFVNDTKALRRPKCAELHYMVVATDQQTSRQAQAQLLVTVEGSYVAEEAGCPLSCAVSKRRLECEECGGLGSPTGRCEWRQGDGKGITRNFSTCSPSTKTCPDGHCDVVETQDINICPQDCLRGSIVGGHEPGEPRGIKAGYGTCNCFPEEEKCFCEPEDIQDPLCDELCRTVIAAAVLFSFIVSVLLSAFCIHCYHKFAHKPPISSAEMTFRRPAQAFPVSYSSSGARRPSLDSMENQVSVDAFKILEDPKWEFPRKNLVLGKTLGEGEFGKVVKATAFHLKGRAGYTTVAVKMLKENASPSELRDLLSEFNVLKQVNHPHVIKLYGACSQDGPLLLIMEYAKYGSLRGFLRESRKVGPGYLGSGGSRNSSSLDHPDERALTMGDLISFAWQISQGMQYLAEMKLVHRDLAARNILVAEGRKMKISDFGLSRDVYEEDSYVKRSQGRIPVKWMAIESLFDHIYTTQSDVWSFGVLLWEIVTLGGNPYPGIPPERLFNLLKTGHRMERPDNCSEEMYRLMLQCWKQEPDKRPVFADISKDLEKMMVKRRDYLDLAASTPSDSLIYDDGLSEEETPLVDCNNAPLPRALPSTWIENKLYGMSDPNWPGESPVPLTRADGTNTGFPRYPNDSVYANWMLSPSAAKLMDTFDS
T3 sequence (P10721 26-976 V559D/T670I): as the sequence (P10721 26-976 A829P) above, with V534D, T645I, P804A counted along it
T8 sequence (P10721 26-976 V559D/V654A): as the sequence (P10721 26-976 A829P) above, with V534D, V629A, P804A counted along it

SMILES	% Ctrl, FLT3(D835V) (kinases [1]) [% Ctrl]	% Ctrl, EGFR(E746-A750del) (kinases [2]) [% Ctrl]	% Ctrl, KIT(V559D, T670I) (kinases [3]) [% Ctrl]	% Ctrl, KIT(A829P) (kinases [4]) [% Ctrl]	% Ctrl, EGFR (kinases [5]) [% Ctrl]	% Ctrl, ABL1(Q252H)-nonphosphorylated (kinases [6]) [% Ctrl]	% Ctrl, ABL1(Q252H)-phosphorylated (kinases [6]) [% Ctrl]	% Ctrl, EGFR(L747-E749del, A750P) (kinases [7]) [% Ctrl]	% Ctrl, EGFR(L747-S752del, P753S) (kinases [7]) [% Ctrl]	% Ctrl, EGFR(L747-T751del, Sins) (kinases [7]) [% Ctrl]	% Ctrl, FLT3(ITD) (kinases [7]) [% Ctrl]	% Ctrl, FLT3(ITD, D835V) (kinases [7]) [% Ctrl]	% Ctrl, FLT3(ITD, F691L) (kinases [7]) [% Ctrl]	% Ctrl, ABL1(M351T)-phosphorylated (kinases [8]) [% Ctrl]	% Ctrl, KIT(V559D, V654A) (kinases [9]) [% Ctrl]	% Ctrl, RET(V804M) (kinases [10]) [% Ctrl]
Cc1cc2c([nH]1)/C=C1\C(=O)Nc3cc(Cl)c(cc31)OCCOCCN(C)C2=O [Ex. 131, [16a(17)Z]-19-chloro-2,5-dimethyl-6,7,9,10-tetrahydro-1H-12,14-(ethanediylidene)dipyrrolo[3,2-i:3′,4′-l][1,4,7]dioxazacyclopentadecine-4,16(5H,15H)-dione]	0	11	0.05	4	52	0	0.2	31	50	59	0.85	0	0.6	0.2	12	0.15
Cc1cc2c([nH]1)/C=C1\C(=O)Nc3cnc(cc31)-c1cnn(C)c1COCCNC2=O [Ex.123, [3a(4)Z]-6,14-dimethyl-10,11,13,14-tetrahydro-2H-17,1-(azenometheno)pyrazolo[4,3-m]dipyrrolo[3,2-f:3′,4′-i][1,4]oxazacyclopentadecine-3,8(5H,9H)-dione]	91	100	97	100	98	92	100	9	100	74	93	100	39	100	79	99
CNC(=O)[C@H]1CN(C)C(=O)c2cc(C)[nH]c2/C=C2\C(=O)Nc3cc(Cl)c(cc32)OCCO1 [Ex. 135, [7R,16a(17)Z]-19-chloro-N,2,5-trimethyl-4,16-dioxo-4,5,6,7,9,10,15,16-octahydro-1H-12,14-(ethanediylidene)dipyrrolo[3,2-i:3′,4′-l][1,4,7]dioxazacyclopentadecine-7-carboxamide]	6	99	6.3	75	100	43	47	82	80	98	52	11	25	48	59	77
Cc1cc2c([nH]1)/C=C1\C(=O)Nc3ccc(cc31)-c1c(noc1C)COCCN(C)C2=O [Ex. 128, [3a(4)Z]-6,9,16-trimethyl-1,11-dihydro-2H,13H-1,17-(ethanediylidene)[1,4]oxazolo[4,3-m]dipyrrolo[3,2-f:3′,4′-i][1,4]oxazacyclopentadecine-3,8(5H,9H)-dione]	1.7	86	71	86	91	57	42	85	93	94	43	5.8	10	39	100	55
Cc1cc2c([nH]1)/C=C1\C(=O)Nc3ccc(cc31)-c1ccnn1CCNCCNC2=O [Ex. 43, [19a(20)Z]-2-methyl-5,6,7,8,9,10-hexahydro-15,17-(ethanediylidene)pyrazolo[1,5-g]dipyrrolo[3,4-k:2′,3′-n][1,4,7]triazacyclohexadecine-4,19(1H,18H)-dione]	27	69	92	77	61	55	97	89	86	85	100	38	47	78	100	97
Cc1cc2c([nH]1)/C=C1\C(=O)Nc3ccc(cc31)O[C@@H](C)COCCN(C)C2=O [Ex. 92, [10S,16a(17)Z]-2,5,10-trimethyl-6,7,9,10-tetrahydro-1H-12,14-(ethanediylidene)dipyrrolo[3,2-i:3′,4′-l][1,4,7]dioxazacyclopentadecine-4,16(5H,15H)-dione]	3.7	100	91	100	98	0	34	91	55	98	45	8.3	9.2	54	67	43
